These results are taken from the supplement of paper PMC7801607.

This test concerns Plasmodium falciparum Dd2 asexual blood stage.
Take `COc1ccc(C(C)(C)C)cc1NC(=O)C(=O)c1ccc(OCCN2CCOCC2)c2ccccc12`: the IC50 is > 5 µM.

For `O=C(O)COc1cccc2c1CC[C@](O)(COC(=O)N(c1ccccc1)c1ccccc1)C2`, the half-maximal inhibitory concentration (IC50) is > 5 µM.

Consider `C[C@@H](c1nc(-c2ccc(C#N)cc2)cs1)[C@](O)(Cn1cncn1)c1ccc(F)cc1F`, for which the IC50 is > 5 µM.

For the compound `O=[N+]([O-])c1cn(Cc2nc(O)nc(O)c2Br)cn1`, the IC50 was > 5 µM.

As for `CC(=O)NC[C@H]1CN(c2ccc(N3CCSCC3)c(F)c2)C(=O)O1`, the IC50 was > 5 µM.

`CCc1cc(Nc2cc(=O)n(CCN3CCN(C(=O)c4ccccc4)CC3)c(=O)[nH]2)ccc1C`: the IC50 is > 5 µM.

With `CC(C)(C)OC(=O)NCc1ccc(C(=O)N[C@H]2CCOC2=O)cc1`, the IC50 was > 5 µM.

In the case of `O=C(NCCN1CCCCC1)c1cccc(C(F)(F)F)c1`, the IC50 was > 5 µM.

Regarding `Fc1ccc2c(/C=C/c3nnn[nH]3)c[nH]c2c1`, the concentration for half-maximal inhibition (IC50) is > 5 µM.

For `CCC(C)n1ncn(-c2ccc(N3CCN(c4ccc(OCC5COC(Cn6cncn6)(c6ccc(Cl)cc6Cl)O5)cc4)CC3)cc2)c1=O` (configuration not stated), the IC50 is 4.35 µM.

`CC(C)n1cnc2c(NCc3ccccc3)nc(NCc3ccccc3)nc21`: the IC50 is > 5 µM.

For `NC[C@H]1OB(O)c2c(OCCCO)cccc21`, the IC50 was > 5 µM.

Compound `COc1ccccc1CN[C@H]1C2CCN(CC2)[C@H]1C(c1ccccc1)c1ccccc1` displayed an IC50 of 2.23 µM. This lies in the single-digit micromolar range.

In the case of `Cc1cc(CCCOc2c(C)cc(-c3noc(C(F)(F)F)n3)cc2C)on1`, the IC50 is > 5 µM.

For `NC(=O)c1ccccc1NC(=O)c1ccc(C(=O)Nc2ccccc2C(N)=O)cc1`, the IC50 was > 5 µM.

For the compound `Nc1nc2c(Cc3cccnc3)c[nH]c2c(=O)[nH]1`, the IC50 was > 5 µM.

Consider `O=C(O)c1ccccc1Sc1ncnc2sc3c(c12)CCC3`, for which the IC50 was > 5 µM.

Turning to `CN(C)CCNC(=O)c1cccc2cccnc12`, the IC50 is > 5 µM.

For the compound `FC(F)(F)Oc1ccc(Nc2ccc3cccc(Cl)c3n2)cc1`, the IC50 is > 5 µM.

Turning to `CCCCN1C[C@H](O)[C@@H](O)[C@H](O)[C@H]1CO`, the IC50 is > 5 µM.

As to `Clc1cccc(-c2nnc(-c3ccccc3)o2)c1`, the IC50 is > 5 µM.

`CCc1cc(O)c(Oc2cccnc2N)cc1F`: the IC50 is > 5 µM.

On to `O=C1CCC(N2C(=O)c3ccccc3C2=O)C(=O)N1` (configuration not stated), for which the IC50 was > 5 µM.

Turning to `CN1c2ccc(Cl)cc2N(c2ccccc2)C(=O)c2cn(Cc3ccc(CN4CCOCC4)cc3)nc21`, the IC50 was > 5 µM.

With `Nc1nc(O)c(Br)c(-c2ccccc2)n1`, the IC50 is > 5 µM.

`COC(=O)Nc1nc2cc(Sc3ccccc3)ccc2[nH]1`: the IC50 is > 5 µM.

Consider `Cc1ccc(C)c(OCCCCCCN2C[C@H](O)[C@@H](O)[C@H](O)[C@H]2CO)c1`, for which the IC50 is > 5 µM.

As to `O=C(Nc1ccc(-c2ccccc2)cc1)C1=C(O)C(Cc2ccccc2)OC1=O` (configuration not stated), the IC50 is > 5 µM.

Consider `O[C@@](Cn1cnnn1)(c1ccc(F)cc1F)C(F)(F)c1ccc(-c2ccc(OCC(F)(F)F)cc2)cn1`, for which the IC50 was > 5 µM.

Consider `Nc1nc(O)c2ncn(COC(CO)CO)c2n1`, for which the IC50 was > 5 µM.

Consider `CC(C)(C)NC(=O)[C@@H]1C[C@@H]2CCCC[C@@H]2CN1C[C@@H](O)[C@H](Cc1ccccc1)NC(=O)[C@H](CC(N)=O)NC(=O)c1ccc2ccccc2n1`, for which the IC50 was > 5 µM.

Take `CC(=N)N1CC[C@H](SC2=C(C(=O)O)N3C(=O)[C@@H]([C@@H](C)O)[C@H]3C2)C1`: the IC50 was > 5 µM.

`COc1ccc(OCc2ccc(COc3c(Cl)cccc3Cl)cc2)c(Cl)c1`: the IC50 was > 5 µM.

For `O=C(NN1C(=O)[C@@H]2C3C=CC([C@H]4C[C@@H]34)[C@@H]2C1=O)c1ccc(C(F)(F)F)cc1`, the IC50 is > 5 µM.

`CSC[C@H]1CN(Cc2c[nH]c3c(N)ncnc23)C[C@@H]1O`: the IC50 was > 5 µM.

As for `O=C(O)CCNC(=O)c1ccccc1`, the IC50 is > 5 µM.

As to `O=C(Nc1ccccc1)N(Cc1cc(Br)ccc1O)c1ccc(F)cc1`, the IC50 is > 5 µM.

Regarding `N#CCN1C(=O)COc2cc(F)c(N3C(=O)c4ccccc4C3=O)cc21`, the IC50 was > 5 µM.

As for `O=C(NCc1ccc2c3c(cccc13)C(=O)N2)c1cccs1`, the IC50 is > 5 µM.

With `CC[N+]1(C/C2=C/CCCCCC2)CCC(NC(=O)C2c3cc(Cl)ccc3Oc3ccc(Cl)cc32)CC1` (configuration not stated), the IC50 was > 5 µM.

With `Cc1nc(Nc2ccc(F)cc2)nc(N2CCc3ccccc3C2C)c1C` (configuration not stated), the IC50 is > 5 µM.

Take `COc1ccc(C[C@@H](C)[C@@H](C)Cc2ccc(OC)c(OC)c2)cc1OC`: the IC50 is > 5 µM.

`Nc1cc(-c2nc3ccccc3[nH]2)n[nH]c1=O`: the IC50 is > 5 µM.

As for `COc1ccc2c(c1)cc(CNC(=O)c1cc3ccccc3o1)n2CC(=O)O`, the IC50 was > 5 µM.

With `CC(C)(C)c1cc(C(=O)/C(C#N)=N/Nc2cccc(Cl)c2)no1`, the IC50 is > 5 µM.

Consider `CCCC1(C2CC2)c2cc(Cl)ccc2NC(=O)N1C` (configuration not stated), for which the IC50 is > 5 µM.

Consider `CC[C@@H](CO)NCCN[C@@H](CC)CO`, for which the IC50 was > 5 µM.

For `O=c1oc2ccc(Br)cc2cc1CSc1ncc[nH]1`, the IC50 was > 5 µM.

Regarding `O=S(=O)(NCB(O)O)c1cc2c(Cl)ccc(Cl)c2s1`, the IC50 was > 5 µM.

With `CC(C)Oc1ccc(-n2cnc3cc(/C=C\c4ccc(C(C)(C)O)cc4)ccc32)cc1`, the IC50 was > 5 µM.

For `Oc1cc(-c2cccc3ccccc23)[nH]n1`, the IC50 was > 5 µM.

Take `Cc1c(CN(C)C(=O)/C=C/c2cnc3c(c2)C(C)(C)C(=O)N3)oc2ccccc12`: the IC50 was > 5 µM.

For `O=C(c1cc(O)nc2ccccc12)N1CCN(c2ccccc2)CC1`, the IC50 was > 5 µM.

As to `O=C(Nc1ccccc1C(=O)O)c1cccc(Oc2ccccc2)c1`, the IC50 is > 5 µM.

Turning to `COc1ccccc1NC(=O)c1ccccc1Sc1ccc([N+](=O)[O-])cc1`, the IC50 was > 5 µM.

`O=c1ccc2ncc(=O)n3c2n1CC3CN1CCC(NCc2cc3c(cn2)OCCC3)CC1` (configuration not stated): the IC50 was > 5 µM.

For the compound `CN1C(=O)C(c2ccccc2)C(=O)N(c2ccccc2)c2cc(C(F)(F)F)ccc21` (configuration not stated), the IC50 is > 5 µM.

As for `CCCC(=O)OCCc1ccccc1`, the IC50 is > 5 µM.

Consider `O=S(=O)(Nc1ccc(-n2cccc2)cc1)c1ccc(Cl)c(Cl)c1`, for which the IC50 is > 5 µM.

In the case of `CCCCCCCCCN1C[C@@H](O)[C@H](O)[C@@H](O)[C@@H]1CO`, the IC50 was > 5 µM.

Consider `CN(C)CC(=O)Nc1ccc2[nH]c(=O)c3ccccc3c2c1`, for which the IC50 was > 5 µM.

Turning to `CC(C)(C)NC(=O)N[C@H](C(=O)N1C[C@H]2[C@@H]([C@H]1C(=O)NC(CC1CCC1)C(=O)C(N)=O)C2(C)C)C(C)(C)C` (some centres not stated), the IC50 is > 5 µM.

Regarding `C[C@H](NC(CC(=O)c1ccccc1C(F)(F)F)C(=O)O)c1ccccc1` (some centres not stated), the IC50 was > 5 µM.

As for `O=C(NCc1cccc2ccccc12)c1cccs1`, the IC50 is > 5 µM.

In the case of `NC(=O)[C@@H]1CC[C@@H]2CN1C(=O)N2OS(=O)(=O)O`, the IC50 is > 5 µM.

Take `N[C@@H]1CN(c2c(F)cc3c(=O)c(C(=O)O)cn([C@@H]4C[C@@H]4F)c3c2Cl)CC12CC2`: the IC50 was > 5 µM.

Take `CCN1CCN(Cc2nc3ccc([N+](=O)[O-])cc3c(=O)n2-c2ccccc2F)CC1`: the IC50 was > 5 µM.

For the compound `Cc1ncc([N+](=O)[O-])n1CC(O)CN1CCOCC1` (configuration not stated), the IC50 was > 5 µM.

Turning to `COc1ccc2sc3c(c2c1)NC(C)CNC3=O` (configuration not stated), the IC50 was > 5 µM.

For `CN(C/C=C/C#CC(C)(C)C)Cc1cccc2ccccc12`, the IC50 was > 5 µM.

In the case of `CC(=O)Nc1cc(NS(=O)(=O)c2ccc(Cl)cc2)cc2c(Cl)n[nH]c12`, the IC50 is > 5 µM.

For `CC(C)C(=O)N[C@H]1[C@H]([C@H](O)[C@H](O)CO)OC(C(=O)O)=C[C@@H]1N=[N+]=[N-]`, the IC50 is > 5 µM.

As for `C[C@H]1COc2c(N3CCN(C)CC3)c(F)cc3c(=O)c(C(=O)O)cn1c23`, the IC50 was > 5 µM.

For the compound `Cc1nc2ccc(Cl)cc2c(-c2ccccc2)c1CC(=O)O`, the IC50 is > 5 µM.

For the compound `Cc1cc(C)n(O)c(=O)c1`, the IC50 is > 5 µM.

Consider `CCCCCOc1ccc(/C=C2\Oc3c(ccc(O)c3O)C2=O)c(O)c1`, for which the IC50 is > 5 µM.

With `O=C(Nc1ccc(Cl)c(C(F)(F)F)c1)C(CCCl)C(=O)Nc1ccc(Cl)c(C(F)(F)F)c1`, the IC50 was > 5 µM.

For `COc1cc(C(C(=O)NC2CCCCC2)N(C(=O)Cc2c[nH]c3ccccc23)c2ccc(C(C)C)cc2)cc(OC)c1OC` (configuration not stated), the 50% inhibitory concentration (IC50) is > 5 µM.

With `O=C(O)/C=C/C=C/c1cccc(Oc2cc(Cl)cc(Cl)c2)c1`, the IC50 is > 5 µM.

Consider `CC(=O)N[C@H](C)C(=O)N[C@H](Cc1ccccc1)C(=O)O`, for which the IC50 is > 5 µM.

Take `CC(C)Nc1ncnc2c1cnn2-c1ccc(Cl)cc1`: the IC50 was > 5 µM.

In the case of `O=C(Nc1nnc(-c2ccc(Cl)cc2)o1)c1ccc(F)cc1`, the IC50 was > 5 µM.

For `CC1(C)[C@H](C(=O)O)N2C(=O)C[C@H]2S1(=O)=O`, the IC50 is > 5 µM.

As for `CC(C)(C)c1ccc(OCCn2nc(C(=O)O)c3ccccc3c2=O)cc1`, the IC50 is > 5 µM.

Regarding `O=C1NC(=S)N/C1=C\c1cc(Br)cc(Br)c1O`, the concentration for half-maximal inhibition (IC50) is > 5 µM.

`CNC(=O)C1O[C@@H](n2cnc3c(NCc4cccc(I)c4)nc(Cl)nc32)[C@H](O)[C@@H]1O` (some centres not stated): the IC50 is > 5 µM.

On to `O=C(O)c1ccc(-c2ccc(O[C@H]3O[C@H](CO)[C@@H](O)[C@H](O)[C@@H]3O)cc2)cc1`, for which the IC50 was > 5 µM.

Regarding `CC(Oc1ccc(Cl)cc1Cl)C(=O)NCc1ccc2c(c1)OCO2` (configuration not stated), the IC50 is > 5 µM.

Take `CCc1nc2ccc(Cl)cn2c1C(=O)NCc1ccc(N2CCC(c3ccc(OC(F)(F)F)cc3)CC2)cc1`: the IC50 is > 5 µM.

Take `O=C(NO)C1(CS(=O)(=O)c2ccc(Oc3ccc(Cl)cc3)cc2)CCOCC1`: the IC50 was > 5 µM.

Regarding `NC(=O)c1ccc(I)c([N+](=O)[O-])c1`, the IC50 is > 5 µM.

For the compound `COc1ccc(-n2cnc3cc(NCc4ccco4)ccc32)cc1`, the IC50 was > 5 µM.

The IC50 is the point on the concentration scale where inhibition reaches its midpoint.
